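Interpolation was linear, between the two tested concentrations surrounding the appropriate level; five concentrations were tested over 48 hours in 96-well plates. GI50: concentration for 50% inhibition of growth.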 Calls of active or inactive are those of the source. No stated cut-off is given here; in the data, active = GI50 up to about 1.1 µM and inactive = higher.
Columns and labels:
Experiment in all cases: DTP human tumour cell line panel, 48 h
[1] = system: ACHN
[2] = system: CAKI-1
[3] = system: HCT-15
[4] = system: HL-60
[5] = system: HOP-92
[6] = system: Hs-578T
[7] = system: M14
[8] = system: MOLT-4
[9] = system: NCI-H23
[10] = system: NCI-H460
[11] = system: NCI-H522
[12] = system: NCI/ADR-RES
[13] = system: OVCAR-4
[14] = system: OVCAR-8
[15] = system: PC-3
[16] = system: SF-268
[17] = system: SF-295
[18] = system: SNB-19
[19] = system: SNB-75
[20] = system: T47D

CNC(=S)N/N=C/c1ccc([N+](=O)[O-])s1
GI50 [1]: > 10 µM (inactive) | GI50 [2]: > 10 µM (inactive) | GI50 [3]: > 10 µM | GI50 [4]: 6.44 µM (inactive) | GI50 [5]: > 10 µM (inactive) | GI50 [6]: > 10 µM (inactive) | GI50 [7]: > 10 µM (inactive) | GI50 [8]: > 10 µM (inactive) | GI50 [9]: > 10 µM (inactive) | GI50 [10]: 6.67 µM (inactive) | GI50 [11]: > 10 µM (inactive) | GI50 [12]: > 10 µM (inactive) | GI50 [13]: > 10 µM (inactive) | GI50 [14]: 7.26 µM (inactive) | GI50 [15]: 3.01 µM (inactive) | GI50 [16]: > 10 µM (inactive) | GI50 [17]: > 10 µM (inactive) | GI50 [18]: > 10 µM (inactive) | GI50 [19]: > 10 µM (inactive) | GI50 [20]: > 10 µM (inactive)

Cc1cc(/N=C/c2ccc(C#N)cc2)n(-c2ccccc2)n1
GI50 [1]: > 100 µM (inactive) | GI50 [2]: > 100 µM (inactive) | GI50 [3]: 50.8 µM | GI50 [4]: 20.1 µM (inactive) | GI50 [5]: > 100 µM (inactive) | GI50 [6]: 44.2 µM (inactive) | GI50 [7]: 55.7 µM (inactive) | GI50 [8]: 42.6 µM (inactive) | GI50 [9]: 56.1 µM (inactive) | GI50 [10]: > 100 µM (inactive) | GI50 [11]: 72.4 µM (inactive) | GI50 [12]: 65.8 µM (inactive) | GI50 [13]: > 100 µM (inactive) | GI50 [14]: 69 µM (inactive) | GI50 [15]: 89.1 µM (inactive) | GI50 [16]: 48.5 µM (inactive) | GI50 [17]: 81.7 µM (inactive) | GI50 [18]: 65.8 µM (inactive) | GI50 [19]: 57 µM (inactive) | GI50 [20]: 48.9 µM (inactive)

O=C1NNC(=O)c2ccccc2SSc2ccccc2C(=O)NNC(=O)c2ccccc2SSc2ccccc21
GI50 [1]: 14 µM (inactive) | GI50 [2]: 13.2 µM (inactive) | GI50 [3]: 8.99 µM | GI50 [4]: 6.7 µM (inactive) | GI50 [5]: > 50 µM (inactive) | GI50 [6]: > 50 µM (inactive) | GI50 [7]: 24.4 µM (inactive) | GI50 [8]: 2.94 µM (inactive) | GI50 [9]: 9.33 µM (inactive) | GI50 [10]: 5.97 µM (inactive) | GI50 [11]: 35.5 µM (inactive) | GI50 [12]: 17.8 µM (inactive) | GI50 [13]: 33.7 µM (inactive) | GI50 [14]: 12.5 µM (inactive) | GI50 [15]: 19.5 µM (inactive) | GI50 [16]: 5.31 µM (inactive) | GI50 [17]: 2.45 µM (inactive) | GI50 [18]: 25.9 µM (inactive) | GI50 [19]: 40.1 µM (inactive) | GI50 [20]: 28.8 µM (inactive)

COc1cc(NS(C)(=O)=O)ccc1NCc1c[nH]c2ccc3nc(C)ccc3c12
GI50 [1]: 33.9 µM (inactive) | GI50 [2]: 20.1 µM (inactive) | GI50 [3]: 37.9 µM | GI50 [4]: 8.45 µM (inactive) | GI50 [5]: 40.6 µM (inactive) | GI50 [6]: 72.1 µM (inactive) | GI50 [7]: 56.1 µM (inactive) | GI50 [8]: 2.9 µM (inactive) | GI50 [9]: 15.8 µM (inactive) | GI50 [10]: 68.1 µM (inactive) | GI50 [11]: 28.4 µM (inactive) | GI50 [12]: > 100 µM (inactive) | GI50 [13]: 44.3 µM (inactive) | GI50 [14]: 50.1 µM (inactive) | GI50 [15]: 43.9 µM (inactive) | GI50 [16]: 28.1 µM (inactive) | GI50 [17]: 48.8 µM (inactive) | GI50 [18]: 77.8 µM (inactive) | GI50 [19]: 22.8 µM (inactive) | GI50 [20]: 24.2 µM (inactive)

O=C1c2ccccc2C(=O)c2c(NC(=O)C(Cl)CCl)cccc21 (stereo not given)
GI50 [1]: 13.8 µM (inactive) | GI50 [2]: 16.3 µM (inactive) | GI50 [3]: 6.65 µM | GI50 [4]: 0.361 µM (active) | GI50 [5]: 3.97 µM (inactive) | GI50 [6]: 31.3 µM (inactive) | GI50 [7]: 6.28 µM (inactive) | GI50 [8]: < 0.0353 µM (active) | GI50 [9]: 4.03 µM (inactive) | GI50 [10]: 6.32 µM (inactive) | GI50 [11]: 2.16 µM (inactive) | GI50 [12]: 23.1 µM (inactive) | GI50 [13]: 10.7 µM (inactive) | GI50 [14]: 5.56 µM (inactive) | GI50 [15]: 9.33 µM (inactive) | GI50 [16]: 5.7 µM (inactive) | GI50 [17]: 26.7 µM (inactive) | GI50 [18]: 15.2 µM (inactive) | GI50 [19]: 10.5 µM (inactive) | GI50 [20]: 2.75 µM (inactive)

CC1CCN(CC(=O)N2c3ccccc3Sc3cc4ccccc4cc32)CC1
GI50 [1]: > 100 µM (inactive) | GI50 [2]: > 100 µM (inactive) | GI50 [3]: > 100 µM | GI50 [4]: 24.7 µM (inactive) | GI50 [5]: > 100 µM (inactive) | GI50 [6]: > 100 µM (inactive) | GI50 [7]: > 100 µM (inactive) | GI50 [8]: 36.4 µM (inactive) | GI50 [9]: > 100 µM (inactive) | GI50 [10]: 37.5 µM (inactive) | GI50 [11]: > 100 µM (inactive) | GI50 [12]: > 100 µM (inactive) | GI50 [13]: > 100 µM (inactive) | GI50 [14]: > 100 µM (inactive) | GI50 [15]: > 100 µM (inactive) | GI50 [16]: > 100 µM (inactive) | GI50 [17]: > 100 µM (inactive) | GI50 [18]: > 100 µM (inactive) | GI50 [19]: > 100 µM (inactive) | GI50 [20]: > 100 µM (inactive)
